Here are results for 6 molecules from patent publication US9273341B2, “Methods for treatment of bacterial infections” (THE JOHNS HOPKINS UNVIERSITY, priority 2010, dated 2016).

≈ marks a conversion by molar mass, not a printed value. Entries after “also recorded” stand apart in the source; their conditions may differ.

In assay [1] the test system is M. tuberculosis mutant strain lacking LdtMt2 (ldtMt2::Tn). In kind it is cell-based.
For assay [2], the target named is T1, LdtMt2 (Mycobacterium tuberculosis, UniProt O53223).
T1 construct: initiator methionine from the pET2818 ATG codon (N); made in house; host or cells: E. coli BL21(DE3) harboring pREP4GroESL and pET2818 with the ldtMt2 fragment
T1 sequence (O53223 55-408): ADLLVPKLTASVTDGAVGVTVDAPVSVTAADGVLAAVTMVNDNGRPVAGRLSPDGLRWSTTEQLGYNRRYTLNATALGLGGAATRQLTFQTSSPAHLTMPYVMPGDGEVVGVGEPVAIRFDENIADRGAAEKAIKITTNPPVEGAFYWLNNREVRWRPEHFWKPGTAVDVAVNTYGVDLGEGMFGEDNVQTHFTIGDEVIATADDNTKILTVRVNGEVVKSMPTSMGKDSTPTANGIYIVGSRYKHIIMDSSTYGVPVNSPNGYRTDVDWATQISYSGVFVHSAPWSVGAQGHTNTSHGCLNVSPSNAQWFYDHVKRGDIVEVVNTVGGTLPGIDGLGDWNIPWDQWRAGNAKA
In kind it is biochemical, M. tuberculosis.

In assay [3] the target is T1, LdtMt2. The class given is binding, M. tuberculosis.
Assay [4] deals with M. tuberculosis lacking LdtMt2 (ldtMt2::Tn). Further details: species or system Balb/C mice. The note with it: mouse, in vivo.

Regarding `N[C@@H]1CON=C1O` [D-cycloserine], the MIC (commonly the lowest concentration found to suppress growth) in assay [1] amounted to 5 µg/mL (≈ 49 µM).

Consider `CC1(C)S[C@@H]2[C@H](NC(=O)[C@H](N)c3ccccc3)C(=O)N2[C@H]1C(=O)O` [ampicillin], for which, in assay [2], the “concentration up to which LdtMt2 was not inhibited” value is > 5,700 μM. Also, the “formation of covalent adducts with LdtMt2” value (“formation” for short) in assay [3] was “Adducts were not detected; also recorded: No adduct was detected”.

As to `CO/N=C(\C(=O)N[C@@H]1C(=O)N2C(C(=O)O)=C(CSc3nc(=O)c(=O)[nH]n3C)CS[C@H]12)c1csc(N)n1` [ceftriaxone], in assay [2], the “concentration up to which LdtMt2 was not inhibited” value is more than 360 µM. In addition, the “formation” value in assay [3] is “Adducts were not detected; also recorded: No adduct was detected”.

In the case of `C[C@@H](O)[C@H]1C(=O)N2C(C(=O)O)=C(S[C@@H]3CN[C@H](C(=O)Nc4cccc(C(=O)O)c4)C3)[C@H](C)[C@H]12` [ertapenem], the “formation” value in assay [3] is “formation of covalent adducts”.

On to `NNC(=O)c1ccncc1` [isoniazid], for which the “bacterial burden (lung CFU) under treatment” value in assay [4] is “similarly effective”.

With `C[C@@H](O)[C@H]1C(=O)N2C(C(=O)O)=C(S[C@@H]3CN[C@H](C(=O)N(C)C)C3)[C@H](C)[C@H]12` [meropenem], in assay [3], the “formation” value was “formation of covalent adducts”.
